Results published in paper PMC10285260, “Processive kinetics in the three-step lanosterol 14α-demethylation reaction catalyzed by human cytochrome P450 51A1” (The Journal of Biological Chemistry, 2023).
Where “and” joins values, the source holds several entries; their conditions need not be identical. Equal entries are not always repeated.

Columns and labels:
human P450 51A1 = target: T1, human P450 51A1 (Homo sapiens, UniProt Q16850); assay: Single-turnover rapid-quench kinetics of [3-3H]-dihydrolanosterol oxidation (radio-HPLC); format: biochemical; design: made in house; host or cells: Escherichia coli
T1 sequence (Q16850 1-509): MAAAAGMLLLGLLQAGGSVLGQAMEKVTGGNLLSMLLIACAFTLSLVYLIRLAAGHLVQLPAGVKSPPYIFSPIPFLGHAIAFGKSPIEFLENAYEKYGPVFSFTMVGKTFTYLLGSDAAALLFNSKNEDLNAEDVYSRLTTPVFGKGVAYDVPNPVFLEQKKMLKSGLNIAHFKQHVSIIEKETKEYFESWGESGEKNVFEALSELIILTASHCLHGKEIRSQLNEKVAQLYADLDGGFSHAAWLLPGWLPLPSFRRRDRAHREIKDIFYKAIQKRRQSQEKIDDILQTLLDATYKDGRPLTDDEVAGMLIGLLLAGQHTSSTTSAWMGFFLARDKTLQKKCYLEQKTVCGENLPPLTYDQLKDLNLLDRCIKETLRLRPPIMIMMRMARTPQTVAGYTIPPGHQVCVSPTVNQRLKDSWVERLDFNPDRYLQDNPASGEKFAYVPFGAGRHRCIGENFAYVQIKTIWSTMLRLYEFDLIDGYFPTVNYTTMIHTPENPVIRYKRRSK
Experimental: All products were separated and quantified by radio-HPLC (Fig. S24).
Samples (held at 4 °C) were injected (45 μl) onto a Nova-Pak 3.9 mm × 150 mm (4 μm) octadecylsilane (C18) HPLC column (held at 23 °C). The products were separated at a flow rate of 1.0 ml min^−1 using an isocratic mobile phase composed of CH3CN (only) as was done for the LC-UV assays (above). The eluate from the column was mixed (1:2, v-v) with FlowLogic U scintillation cocktail, and radioactivity (^3H) was detected on a β-RAM Model 5 system (IN/US, LabLogic) (Fig. S24). Product formation was assessed as the relative contribution of each peak (in CPM) to the summed peak area of substrate and product(s).
The single-turnover experiments were performed using a KinTek rapid quench-flow apparatus (KinTek). This machine functions by forcing equal volumes (∼19 μl) of two separate solutions into a central mixing chamber, where the components are allowed to incubate for a predetermined period of time before an excess volume of quench solution (∼160 μl) stops the reaction and expels the mixture from the apparatus. […] After the predetermined incubation period, the reaction (37 °C) was quenched with HCl (1 M), and the mixture (∼200 μl) was collected into vials. The products of five identical reactions (time points) were combined and were extracted into CH2Cl2 (5 ml). An aliquot (4 ml) of the lower (organic) layer was removed into a fresh vial, and the extraction was repeated to maximize sample recovery. The pooled organic fraction (∼8 ml) was brought to dryness under a stream of N2 gas, and the residue was redissolved in 60 μl of CH3OH and transferred to LC vials for analysis.

[1] = test system: rat liver microsomal systems; design: method as in PMID 3514778; conditions: rat liver microsomes fortified with cyanide, 2 h; cited from earlier work
[2] = Estimation of Kd for HPCD-dihydrolanosterol complex (OD450 light scattering); format: physicochemical; conditions: pH 7.4, 2% C2H5OH, 23 °C, 16 h; two assays
[3] = time 0.05 s, start 7 µM dihydrolanosterol

SMILES | concentration in single-turnover reaction (human P450 51A1; [3]) [µM] | concentration in single-turnover reaction (human P450 51A1; time 0.1 s) [µM] | concentration in single-turnover reaction (human P450 51A1; time 0.15 s) [µM] | concentration in single-turnover reaction (human P450 51A1; time 0.2 s) [µM] | concentration in single-turnover reaction (human P450 51A1; time 0.3 s) [µM] | concentration in single-turnover reaction (human P450 51A1; time 0.4 s) [µM] | concentration in single-turnover reaction (human P450 51A1; time 0.6 s) [µM] | concentration in single-turnover reaction (human P450 51A1; time 0.8 s) [µM] | concentration in single-turnover reaction (human P450 51A1; time 1 s) [µM] | concentration in single-turnover reaction (human P450 51A1; time 1.2 s) [µM] | concentration in single-turnover reaction (human P450 51A1; time 1.6 s) [µM] | concentration in single-turnover reaction (human P450 51A1; time 2 s) [µM] | concentration in single-turnover reaction (human P450 51A1; time 3 s) [µM] | concentration in single-turnover reaction (human P450 51A1; time 4 s) [µM] | concentration in single-turnover reaction (human P450 51A1; time 7 s) [µM] | accumulation, yield [1] [%] | other results
CC(C)CCCC(C)[C@H]1CC[C@@]2(CO)C3=C(CC[C@]12C)[C@@]1(C)CC[C@H](O)C(C)(C)C1CC3 (stereo partly drawn) [14α-CH2OH dihydrolanosterol, 24,25-dihydro-14α-CH2OH lanosterol] | 2.2428 | 3.1584 | 2.7482 | 2.961 | 2.3331 | 1.9978 | 1.1711 | 0.9849 | 0.4431 | 0 | 0 | 0 | 0 | 0 | 0 | ~3 | 
CC(C)CCCC(C)[C@H]1CC[C@@]2(C=O)C3=C(CC[C@]12C)[C@@]1(C)CC[C@H](O)C(C)(C)C1CC3 (stereo partly drawn) [14α-CHO dihydrolanosterol, 24,25-dihydro-14α-formyl lanosterol] | 0 | 0.8505 | 1.1396 | 1.6401 | 1.848 | 1.8837 | 1.7976 | 1.4126 | 1.4476 | 1.3349 | 0.8218 | 0.7105 | 0 | 0 | 0 | ~3 | 
CC(C)CCCC(C)[C@H]1CC[C@@]2(C)C3=C(CC[C@]12C)[C@@]1(C)CC[C@H](O)C(C)(C)C1CC3 (stereo partly drawn) [dihydrolanosterol, 24,25-dihydrolanosterol] | 4.7572 | 2.9911 | 2.8308 | 1.974 | 2.0671 | 1.9166 | 1.5253 | 1.5841 | 1.0563 | 1.1711 | 1.3601 | 1.0864 | 1.1137 | 0.3647 | 0 |  | kobs/Kd (human P450 51A1; first step, 7 s^−1/0.23 μM): 3e+07 M⁻¹ s⁻¹; fraction of initial material persisting until > 4 s (human P450 51A1; single turnover): ~20%; time in which the reaction was completed (human P450 51A1; single turnover): 7 s; time of 50% decrease of substrate concentration (human P450 51A1; single turnover): 0.10 s; first-order exponential decay rate of substrate concentration (human P450 51A1; single turnover, 37 °C): 8.7 s⁻¹; apparent rate of overall oxidation to dihydro FF-MAS, single exponential fit (human P450 51A1; single turnover, even with the lag): 0.8 s⁻¹; Kd [2]: 6.4 mM and 6.8 mM
